Experimental findings from patent publication US5519034A, “Tetraisoquinoline compounds which have useful pharmaceutical utility” (The Boots Company PLC, priority 1991, dated 1996) are described below.

In test [1] the target is T1, D1 dopamine receptors (Rattus norvegicus, UniProt P18901).
T1 construct: Striatal samples from the brains of male Charles River CD rats; from tissue; host or cells: striatum of male Charles River CD rats (washed membrane pellet)
Nature of the test: D1 dopamine receptor binding: inhibition of tritiated SCH 23390 binding, rat striatal samples. Details: species or system rat (male Charles River CD rats). To be noted: rat striatum, tritiated SCH 23390, pH 7.4, 37° C., 30 minutes. As to the method:
(§1) Striatal samples from the brains of male Charles River CD rats weighing between 140-250 g were homogenised in ice-cold 50 mM Tris-HCl buffer (pH 7.4 when measured at 25° C. for D1 binding assays and pH 7.7 when measured at 25° C. for D2 binding assays) and centrifuged for 10 minutes (at 21,000 g when used for D1binding assay and 40,000 g when used for D2binding assays). The pellet was resuspended in the same buffer, again centrifuged and the final pellet stored at -80° C. Before each test the pellet was resuspended in 50 mM Tris-HCl buffer containing 120 mM NaCl, 5 mM KCl, 2 mM CaCl2 and 1 mM MgCl2 at pH 7.4 for the D1 binding assays and at pH 7.7 with the addition of 6 mM ascorbic acid for the D2 binding assays. Aliquots of this suspension were then added to tubes containing the ligand and either the compound under test or buffer. For the D1 binding assays the ligand was tritiated SCH 23390 and the mixture was incubated at 37° C. for 30 minutes before the incubation was terminated by rapid filtration. For the D2 binding assays the ligand was tritiated (S)-sulpiride and the mixture was incubated at 4° C. for 40 minutes before the incubation was terminated by rapid filtration. Non-specific binding was determined experimentally by the addition of saturating concentrations of chloropromazine or spiroperidol for D1 and D2 receptors respectively.
(§2) The filters were washed with ice-cold Tris-HCl buffer and dried. The filters were punched out on to vials containing scintillation fluid and were left for about 20 hours before being counted by scintillation spectrophotometry. Displacement curves were produced over a range of concentrations of the compound under test and the concentration which gave a 50% inhibition of specific binding (IC50) obtained from the curve. The inhibition coefficient Ki was then calculated using the formula [formula] in which [ligand] is the concentration of the tritiated ligand used and KD is the equilibrium dissociation constant for the ligand.
(§3) In some cases Ki values for D2 binding were estimated from single concentration data by the application of the Langmuir adsorption isotherm equation. These cases are indicated by an "E" in the last two columns of Table I. In other cases it was not possible to determine or estimate the Ki and the Ki value is given as greater than (>) that which would result from the application of the above formula to the highest concentration which displaced ≤50% of the ligand.

The target in test [2] is T2, D2 dopamine receptors (Rattus norvegicus, UniProt P61169).
T2 construct: Striatal samples from the brains of male Charles River CD rats; from tissue; host or cells: striatum of male Charles River CD rats (washed membrane pellet)
Nature of the test: D2 dopamine receptor binding: inhibition of tritiated (S)-sulpiride binding, rat striatal samples. Details: species or system rat (male Charles River CD rats). As to conditions: for Ki: rat striatum, tritiated (S)-sulpiride, pH 7.7, 4° C., 40 minutes, > = from highest concentration which displaced ≤50% of the ligand, read-out: Ki for D2 binding; for Ki for D2 / Ki for D1: ratio to two significant figures. How it is done: as §1, §2, §3

T1 sequence (P18901 whole entry): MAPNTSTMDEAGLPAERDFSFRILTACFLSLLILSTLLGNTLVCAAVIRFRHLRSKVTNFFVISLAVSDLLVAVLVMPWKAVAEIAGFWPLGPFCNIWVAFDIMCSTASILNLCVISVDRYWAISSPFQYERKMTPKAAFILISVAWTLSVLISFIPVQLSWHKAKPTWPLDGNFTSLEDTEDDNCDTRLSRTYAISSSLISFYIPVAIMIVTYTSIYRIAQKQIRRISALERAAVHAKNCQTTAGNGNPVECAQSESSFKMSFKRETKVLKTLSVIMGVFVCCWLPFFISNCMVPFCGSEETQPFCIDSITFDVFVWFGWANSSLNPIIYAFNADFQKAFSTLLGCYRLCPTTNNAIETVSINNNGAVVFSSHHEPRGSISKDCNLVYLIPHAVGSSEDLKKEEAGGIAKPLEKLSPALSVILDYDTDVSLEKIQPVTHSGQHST
T2 sequence (P61169 whole entry): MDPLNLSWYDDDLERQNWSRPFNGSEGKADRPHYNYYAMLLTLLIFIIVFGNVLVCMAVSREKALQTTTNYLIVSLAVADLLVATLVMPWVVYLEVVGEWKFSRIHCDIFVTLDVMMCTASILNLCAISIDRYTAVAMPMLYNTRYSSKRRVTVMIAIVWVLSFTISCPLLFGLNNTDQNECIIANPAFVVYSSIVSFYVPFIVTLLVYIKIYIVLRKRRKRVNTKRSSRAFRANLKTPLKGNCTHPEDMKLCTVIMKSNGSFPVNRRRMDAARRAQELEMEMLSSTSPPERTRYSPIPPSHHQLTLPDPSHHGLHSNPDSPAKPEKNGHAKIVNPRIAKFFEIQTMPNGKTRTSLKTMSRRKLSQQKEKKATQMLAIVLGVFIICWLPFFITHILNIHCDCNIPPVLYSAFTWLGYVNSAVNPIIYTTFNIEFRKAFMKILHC

`CN1CCc2cc(O)c(O)cc2C1C1(c2ccccc2Br)CCC1` (single isomer, unassigned; (+)) [Example 60, (+)-1-[1-(2-bromo-phenyl)cyclobutyl] -6,7-dihydroxy-2-methyl-1,2,3,4-tetrahydroisoquinoline]: the values for the inhibitory constant (Ki) in test [1] and in test [2] were 0.0028 µM and 2 µM, respectively. Also, in test [2], the “Ki for D2 / Ki for D1” value came out at 710.

As for `CN1CCc2cc(F)c(O)cc2C1C1(c2ccccc2Cl)CC1` (single isomer, unassigned; (+)) [Example 62, (+)-1-[1-(2-chlorophenyl)cyclopropyl]-6-fluoro-7-hydroxy-2-methyl-1,2,3,4-tetrahydroisoquinoline], the Ki in test [1] turned out to be 0.00038 µM. In test [2], the inhibitory constant (Ki) was found to be 0.41 µM and the “Ki for D2 / Ki for D1” value came to 1100.

Take `CN1CCc2cc(F)c(O)cc2C1C1(c2ccccc2Cl)CCC1` (single isomer, unassigned; (+)) [Example 64, (+)-1-[1-(2-chlorophenyl)cyclobutyl]-6-fluoro-7-hydroxy-2-methyl-1,2,3,4-tetrahydroisoquinoline]: the Ki in test [1] was 0.0024 µM; in test [2], 4.8 µM. For the same compound, the “Ki for D2 / Ki for D1” value in test [2] was determined as 2000.

As for `COc1cc2c(cc1O)C(C1(c3ccccc3Cl)CC1)N(C)CC2` (single isomer, unassigned; (+)) [Example 77, (+)-1-[1-(2-chlorophenyl)cyclopropyl]-7-hydroxy-6-methoxy-2-methyl-1,2,3,4-tetrahydroisoquinoline], in test [1], the affinity corresponds to a Ki of 0.00028 µM. Besides, in test [2], the inhibition constant Ki came out at 0.9 µM and the “Ki for D2 / Ki for D1” value stood at 3200.

As to `Cc1cc2c(cc1O)C(C1(c3ccccc3Cl)CC1)N(C)CC2` (single isomer, unassigned; (+)) [Example 80, (+)-1-[1-(2-chlorophenyl)cyclopropyl]-7-hydroxy-2,6-dimethyl-1,2,3,4-tetrahydroisoquinoline], the inhibition constant (Ki) in test [1] was found to be 0.00067 µM. Also, in test [2], the Ki worked out at 0.37 µM and the “Ki for D2 / Ki for D1” value amounted to 550.

In test [1], `COc1cc2c(cc1O)C(C1(c3ccccc3Cl)CC1)N(C)CC2` (single isomer, unassigned; (+)) [Example 85, (+)-1-[1-(2-chlorophenyl)cyclopropyl]-7-hydroxy-6-methoxy-2-methyl-1,2,3,4-tetrahydroisoquinoline] yielded an inhibitory constant (Ki) of 0.00028 µM. For the same compound, in test [2], the inhibitory constant (Ki) was 0.9 µM and the “Ki for D2 / Ki for D1” value is reported as 3200.

For `CN1CCc2cc(Cl)c(O)cc2C1C1(c2ccccc2)CCC1` (single isomer, unassigned; (-)) [Example 59, (-)-6-chloro-7-hydroxy-2-methyl-1-(1-phenylcyclobutyl)-1,2,3,4-tetrahydroisoquinoline], the affinity in test [1], expressed as Ki, was 0.0052 µM. In addition, in test [2], the Ki came to 3.2 µM and the “Ki for D2 / Ki for D1” value was 620.

As for `CN1CCc2cc(O)c(O)cc2C1C1(c2ccccc2Br)CCC1` (stereo not drawn) [Example 1, 1-[1-(2-bromophenyl)cyclobutyl]-6,7-dihydroxy-2-methyl-1,2,3,4-tetrahydroisoquinoline], affinity in test [1] was put at a Ki of 0.004 µM. In test [2], the inhibition constant (Ki) amounted to 1 µM and the “Ki for D2 / Ki for D1” value is 250.

With `CN1CCc2cc(O)c(O)cc2C1C1(c2ccccc2Cl)CCC1` (stereo not drawn) [Example 2, 1-[1-(2-chlorophenyl)cyclobutyl]-6,7-dihydroxy-2-methyl-1,2,3,4-tetrahydroisoquinoline], the inhibition constant (Ki) in test [1] stood at 0.0072 µM. In test [2], the Ki amounted to 12 µM and the “Ki for D2 / Ki for D1” value is listed as 1700.

Compound `CN1CCc2cc(O)c(O)cc2C1C1(c2ccc(F)cc2)CCC1` (stereo not drawn) [Example 3, 1-[1-(4-fluorophenyl)cyclobutyl]-6,7-dihydroxy-2-methyl-1,2,3,4-tetrahydroisoquinoline] gave a Ki in test [1] of 0.022 µM. For the same compound, in test [2], the inhibition constant (Ki) is 6100 µM and the “Ki for D2 / Ki for D1” value stood at 280000.

For the compound `Cc1ccccc1C1(C2c3cc(O)c(O)cc3CCN2C)CCC1` (stereo not drawn) [Example 4, 6,7-dihydroxy-2-methyl-1-[1-(o-tolyl)cyclobutyl]-1,2,3,4-tetrahydroisoquinoline], the figures for the Ki in test [1] and in test [2] were 0.029 µM and 260 µM, respectively. The “Ki for D2 / Ki for D1” value in test [2] worked out at 9000.
